Reference: USRE39616E1, “Aminoindan derivatives” (priority 1996, dated 2007)
Counter-ions that a name gives are not always drawn. Like-named read-outs stand apart in the source and are kept apart here. Marks after values point to notes of the source that are not given here.

Assays:
[1] = molecular target: T1, whole brain AChE (Mus musculus, UniProt P21836); details: for AChE Inhibition Ex vivo ED50 (AC): mice, whole brain, at peak of activity; for AChE Inhibition Time to peak activity t / AChE Inhibition Time to return to 50% of peak t: mouse, in vivo
T1 sequence (P21836 32-614): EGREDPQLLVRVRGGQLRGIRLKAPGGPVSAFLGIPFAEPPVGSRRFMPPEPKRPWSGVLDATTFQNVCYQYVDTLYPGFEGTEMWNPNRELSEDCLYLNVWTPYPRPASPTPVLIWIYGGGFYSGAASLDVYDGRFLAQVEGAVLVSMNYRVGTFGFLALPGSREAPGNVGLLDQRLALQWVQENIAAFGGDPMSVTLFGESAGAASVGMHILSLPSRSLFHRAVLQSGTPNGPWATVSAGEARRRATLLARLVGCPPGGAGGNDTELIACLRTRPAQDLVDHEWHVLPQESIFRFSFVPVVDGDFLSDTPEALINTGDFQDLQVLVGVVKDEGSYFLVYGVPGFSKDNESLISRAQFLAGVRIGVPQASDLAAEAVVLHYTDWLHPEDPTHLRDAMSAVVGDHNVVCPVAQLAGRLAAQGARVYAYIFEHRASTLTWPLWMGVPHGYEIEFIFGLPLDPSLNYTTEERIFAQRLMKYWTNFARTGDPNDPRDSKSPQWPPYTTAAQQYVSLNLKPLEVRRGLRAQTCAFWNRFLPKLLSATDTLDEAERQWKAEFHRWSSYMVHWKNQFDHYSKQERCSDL
Description: Test drugs or saline were administered sub-cutaneously to male mice (Sabra strain, 28-35 g). […] The mice were sacrificed 15, 30, 50, 70, 90, 120 or 180 minutes after drug administration, the brains rapidly removed (minus cerebellum), weighed and homogenized in 0.1 M phosphate buffer, pH 8.0, containing Triton (1 mg/100 g tissue) and centrifuged to remove cell debris. Aliquots (25 μl) of the supernatant were then incubated with acetylthiocholine and DTNB. AChE activity was measured as described above. The % inhibition of whole brain AChE by each dose of drug was calculated by comparison with enzyme activity from 3 saline treated control mice run at the same time.

[2] = molecular target: T2, MAO-B (Rattus norvegicus, UniProt P19643); experiment: Inhibition of MAO activity in vitro, PEA as substrate; format: biochemical; set-up: The MAO enzyme source was a homogenate of rat brain in 0.3M sucrose; from tissue; host or cells: rat brain homogenate, 600 g supernatant; details: MAO-B Inhibition In vitro IC50, rat brain homogenate
T2 sequence (P19643 1-520): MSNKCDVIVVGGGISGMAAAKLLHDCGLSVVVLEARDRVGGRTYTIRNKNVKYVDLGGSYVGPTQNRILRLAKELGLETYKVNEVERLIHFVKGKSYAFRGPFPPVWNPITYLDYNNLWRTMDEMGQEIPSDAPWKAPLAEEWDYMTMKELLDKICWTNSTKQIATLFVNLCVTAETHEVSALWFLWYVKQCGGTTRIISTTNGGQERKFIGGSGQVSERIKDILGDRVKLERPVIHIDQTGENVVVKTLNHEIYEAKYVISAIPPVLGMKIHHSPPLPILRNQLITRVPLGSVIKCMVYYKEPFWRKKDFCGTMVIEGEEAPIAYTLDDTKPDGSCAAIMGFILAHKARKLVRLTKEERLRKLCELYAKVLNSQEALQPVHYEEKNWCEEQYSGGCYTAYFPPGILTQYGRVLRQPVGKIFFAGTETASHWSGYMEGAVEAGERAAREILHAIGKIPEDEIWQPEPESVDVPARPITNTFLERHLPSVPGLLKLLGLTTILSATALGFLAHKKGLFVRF
Description: (§1) Substrate concentrations used were 50 μM (PEA) and 1 mM (5-HT).

[3] = molecular target: T3, Human erythrocyte acetylcholinesterase (Homo sapiens, UniProt P22303); experiment: biochemical; format: biochemical; details: AChE Inhibition In vitro IC50
T3 construct: Human erythrocyte acetylcholinesterase (type XIII, Sigma Israel); purchased Sigma Israel type XIII; host or cells: human erythrocytes
Method in brief: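 Erythrocyte AChE (type XIII) from 1 U/ml stock containing 1% Triton and 0.05% BSA in phosphate buffer pH 8; 0.05 U enzyme preincubated with 3-5 compound concentrations, triplicate, 15 to 60 minutes at 37° C. Percent inhibition calculated against drug-free enzyme.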

[4] = test system: Middle Cerebral Artery Occlusion (MCA-O) in Male Wistar Rats
Description: Male Wistar rats (Olac England-Jerusalem) 300-400 g each were anesthetized with a solution of Equitesine administered i.p. at a dose of 3 ml/kg. Equitesine consists of 13.5 ml sodium pentothal solution (60 mg/ml), 3.5 g chloral hydrate, 1.75 g MgSO4, 33 ml propylene glycol, 8.3 ml absolute alcohol, made up to 83 ml with distilled water.
The dura matter was opened carefully using a 27 gauge needle The MCA was permanently occluded by microbipolar coagulation at low power setting, beginning 2-3 mm medial to the olfactory tract between its cortical branch to the rhinal cortex and the laterate striate arteries. After coagulation, the MCA was severed with microscissors and divided to ensure complete occlusion. Following this, the temporalis muscle was sutured and laid over the craniectomy site. The skin was closed with a running 3-0 silk suture. A sham craniectomy operation was performed on a parallel group of rats, but without cauterization of the MCA.
At 24 and 48 hours post surgery a neurological score was taken in order to assess the severity of the injury in the drug-treated rats with respect to their untreated controls.
Drugs were administered as an s.c. injection, according to the following schedule:
The scale runs from 0 (fully normal rats) to 13 (fully incapacitated rats). Most parameters are rated as either 0 (normal), or 1 (incapacitated) others are graded. […]

[5] = test system: Middle Cerebral Artery Occlusion (MCA-O) in Male Wistar Rats; details: rat, in vivo
[6] = molecular target: T4, MAO-A (Rattus norvegicus, UniProt P21396); experiment: in vivo; format: in vivo, rats; set-up: animals were sacrificed and MAO levels determined in the brain, liver and intestines; from tissue; host or cells: rat brain, liver and intestine; details: for % MAO-A inhibition: HCl
T4 sequence (P21396 1-526): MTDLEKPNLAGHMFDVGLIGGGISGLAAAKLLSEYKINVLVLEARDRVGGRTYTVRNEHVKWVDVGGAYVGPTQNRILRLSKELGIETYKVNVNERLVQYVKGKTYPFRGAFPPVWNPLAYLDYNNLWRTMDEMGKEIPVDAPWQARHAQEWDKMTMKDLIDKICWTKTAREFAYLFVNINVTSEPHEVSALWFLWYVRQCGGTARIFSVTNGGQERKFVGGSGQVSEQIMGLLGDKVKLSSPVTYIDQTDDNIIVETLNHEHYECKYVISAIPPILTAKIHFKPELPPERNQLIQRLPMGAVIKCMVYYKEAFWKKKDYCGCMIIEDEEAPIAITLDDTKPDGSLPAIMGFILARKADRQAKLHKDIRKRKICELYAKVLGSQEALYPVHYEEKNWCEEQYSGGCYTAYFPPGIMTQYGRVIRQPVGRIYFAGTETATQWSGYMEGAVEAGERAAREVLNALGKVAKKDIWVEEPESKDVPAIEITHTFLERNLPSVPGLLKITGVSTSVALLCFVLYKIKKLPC
Description: as §1
Male Sabra mice, weighing 45-50 g were injected with test compound solutions (prepared in 0.9% saline). Each dose was administered to two or three mice. The mice were sacrificed two hours after drug administration or at a time corresponding to the peak AChE inhibition time (see Table 11). The brain and liver were rapidly dissected and stored in appropriate vials on ice. The tissues were weighed, diluted to ½ in sucrose 0.3M and stored at −20° C. before performance of the MAO assay described above. The results given in Table 11 relate to measurements made on brain tissue only.
Experiments were done in Sprague Dawley male rats. […] At the end of this period animals were sacrificed and MAO levels determined in the brain, liver and intestines.

[7] = test system: Closed Head Injury (CHI) in Mice; experiment: Closed Head Injury (CHI) in mice: motor function, neurological severity score (NSS); format: in vivo; details: difference from NSS at 1 hr
[8] = 6.5 mg/kg sc once 15 min after CHI
[9] = 46 mg/kg administered 60 min before CHl
[10] = 46 mg/kg sc once 15 min after CHI
[11] = 15 mg/kg sc once 15 min after CHI

T3 sequence (P22303 32-617 isoform P22303-2 limits assumed): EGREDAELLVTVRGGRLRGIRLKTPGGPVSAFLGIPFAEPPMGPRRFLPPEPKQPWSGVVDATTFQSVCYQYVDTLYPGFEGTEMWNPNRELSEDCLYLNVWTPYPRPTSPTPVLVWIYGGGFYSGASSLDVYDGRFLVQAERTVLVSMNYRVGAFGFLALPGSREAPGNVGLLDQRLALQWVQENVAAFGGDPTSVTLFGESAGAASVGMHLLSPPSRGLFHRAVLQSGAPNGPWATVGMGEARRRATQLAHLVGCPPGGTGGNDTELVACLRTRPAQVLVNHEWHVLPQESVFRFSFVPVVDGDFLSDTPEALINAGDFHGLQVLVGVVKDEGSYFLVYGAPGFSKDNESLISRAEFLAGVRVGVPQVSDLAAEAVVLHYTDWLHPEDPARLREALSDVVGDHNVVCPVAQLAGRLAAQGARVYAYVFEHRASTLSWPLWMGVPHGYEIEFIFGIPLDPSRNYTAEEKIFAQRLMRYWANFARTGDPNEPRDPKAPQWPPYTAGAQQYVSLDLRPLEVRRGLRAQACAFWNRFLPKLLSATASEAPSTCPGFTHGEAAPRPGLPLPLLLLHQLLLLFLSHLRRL

| SMILES | AChE Inhibition Ex vivo ED50 (AC) [1] [µmol/kg] | AChE Inhibition Time to peak activity t [1] [min] | AChE Inhibition Time to return to 50% of peak t [1] [min] | IC50 [2] [µM] | IC50 [3] [µM] | Volume infarction Mean ± SD [5] [mm*] | further results |
| --- | --- | --- | --- | --- | --- | --- | --- |
| CN(C)C(=O)Oc1ccc2c(c1)C(N)CC2 (centres unmarked) [Compound 1] | 5.0 | 30 | >120 | > 1000 |  |  |  |
| C#CCNC1CCc2cccc(OC(=O)N(C)C)c21 (centres unmarked) [Compound 27] | 30 | 15 | >60 | > 1000 | 5.72 |  |  |
| C#CCNC1CCc2ccc(OC(=O)N(C)C)cc21 (centres unmarked) [Compound 24, 6-(N,N-Dimethylcarbamyloxy)-N-propargyl aminoindan mesylate] |  |  |  | 750 |  | 152 ± 45 | ΔNSS (difference measured at 24 hours and 48 hours) ([4]; s.c. […] 15 minutes prior to MCA-O and 6.5 mg/kg 2 hours post MCA-O): 1.625; inhibition at 10 mg/kg ([6]; po, read-out: % MAO-A inhibition, Brain, po, 10 mg/kg daily for 14 days, rats): 0%; inhibition at 10 mg/kg ([6]; po, read-out: % MAO-A inhibition, Intestine, po, 10 mg/kg daily for 14 days, rats): 30%; inhibition at 10 mg/kg ([6]; po, read-out: % MAO-A inhibition, Liver, po, 10 mg/kg daily for 14 days, rats): 10%; inhibition at 6 mg/kg ([6]; sc, read-out: % MAO-A inhibition, Brain, sc, 6 mg/kg daily for 14 days, rats): 30%; inhibition at 6 mg/kg ([6]; sc, read-out: % MAO-A inhibition, Intestine, sc, 6 mg/kg daily for 14 days, rats): 0%; inhibition at 6 mg/kg ([6]; sc, read-out: % MAO-A inhibition, Liver, sc, 6 mg/kg daily for 14 days, rats): 0%; ΔNSS, 24 hr post-CHl [7, 8]: 6.31 ± 0.23^m; ΔNSS, 7 days post-CHl [7, 8]: 8.67 ± 0.41^m; ΔNSS, 14 days post-CHl [7, 8]: 9.67 ± 0.66^m |
| C#CCN(C)C1CCc2ccc(OC(=O)N(C)C)cc21 (centres unmarked) [Compound 29] | 53.7 | 15 | >60 | 40 | 8.5 |  |  |
| C#CCNC1CCc2ccc(OC(=O)N(C)CC)cc21 (centres unmarked) [Compound 25, 6-(N-Me, N-Etcarbamyloxy) N-propargyl aminoindan, HCl] | 140.0 | 60 | >180 |  | 53 | 189 ± 54 | ΔNSS (difference measured at 24 hours and 48 hours) ([4]; s.c. 43 mg/kg 90 minutes prior to MCA-O and 30 mg/kg 3 hours post MCA-O): 1.78; selectivity of MAO inhibition, brain versus periphery (liver, intestines) ([6]; in vivo): selectivity in inhibiting MAO enzyme sub-types in the brain in preference to the periphery; % MAO-A inhibition ([6]; in vivo, po, 50 mg/kg): 25%; % MAO-A inhibition ([6]; in vivo, sc, 25 mg/kg): 0%; ΔNSS, 24 hr post-CHl [7, 9]: 4.90 ± 0.43; ΔNSS, 7 days post-CHl [7, 9]: 7.70 ± 0.33^m; ΔNSS, 14 days post-CHl [7, 9]: 8.80 ± 0.33^m; ΔNSS, 24 hr post-CHl [7, 10]: 5.00 ± 0.42; ΔNSS, 7 days post-CHl [7, 10]: 7.42 ± 0.62^m; ΔNSS, 14 days post-CHl [7, 10]: 9.01 ± 0.69^m |
| CCN(C)C(=O)Oc1ccc2c(c1)C(NC)CC2 (centres unmarked) [Compound 10] | 34.7 | 60 to 90 | >180 |  |  |  | ΔNSS, 24 hr post-CHl [7, 11]: 5.36 ± 0.39; ΔNSS, 7 days post-CHl [7, 11]: 6.64 ± 0.41^m; ΔNSS, 14 days post-CHl [7, 11]: 6.73 ± 0.52 |
